{"source": "patent US20060074100A1", "about": "“Histone deacetylase inhibitors for the treatment of ocular neovascular or edematous disorders and diseases” (priority 2002, published 2006)", "origin": "cited, not measured here", "key": {"[1]": {"test_system": "corneal neovascularization", "conditions": "in combination with a beta cyclodextrin"}, "[2]": {"test_system": "cancer cell"}, "[3]": {"test_system": "cancer cell", "conditions": "in vitro"}, "[4]": {"test_system": "tumors", "conditions": "animal models"}, "[5]": {"conditions": "phase I clinical trials"}}}
{"smiles": "C[C@]12CC[C@@H](O)C[C@H]1CC[C@@H]1[C@@H]2CC[C@@]2(C)[C@H]1CC[C@]2(O)C(=O)CO", "note": "[tetrahydrocortisol-S]", "values": [{"measurement": "inhibition of corneal neovascularization", "setting": "[1]", "value": "inhibit corneal neovascularization"}]}
{"smiles": "C[C@@H]1C[C@H]2[C@@H]3C[C@H](F)C4=CC(=O)CC[C@]4(C)C3=CC[C@]2(C)[C@@]1(O)C(=O)CO", "note": "[U-72,745G]", "values": [{"measurement": "inhibition of corneal neovascularization", "setting": "[1]", "value": "inhibit corneal neovascularization"}]}
{"smiles": "O=C(CCCCCCC(=O)Nc1ccccc1)NO", "note": "[SAHA, suberoylanilide hydroxamic acid]", "values": [{"measurement": "induction of cancer cell differentiation", "setting": "[2]", "value": "potent inducer of cancer cell differentiation"}, {"measurement": "cancer cell growth", "setting": "[3]", "value": "arrest cancer cell growth in vitro"}, {"measurement": "tumor size", "setting": "[4]", "value": "shrink tumors in animal models"}, {"measurement": "dose-limiting toxicity", "setting": "[5]", "value": "almost no dose-limiting toxicity"}, {"measurement": "suppression of white blood cell production", "setting": "[5]", "value": "no suppression of white blood cell production"}]}
{"smiles": "C[C@]12CCC(=O)C=C1CC[C@@H]1[C@@H]2[C@@H](O)C[C@@]2(C)[C@H]1CC[C@]2(O)C(=O)CO", "note": "[hydrocortisone]", "values": [{"measurement": "inhibition of corneal neovascularization", "setting": "[1]", "value": "inhibit corneal neovascularization"}]}
